From publication PMC5218480 (PLoS ONE, 2017)

Tested on: MV-4-11 cells
Assay: Gene expression microarray analysis (Affymetrix PrimeView) and GSEA
Format: cell-based, human
Design: RFU PODN (11730768_x_at) / Fold change /veh PODN (11730768_x_at) / RFU LINC00158 (11744669_a_at) / Fold change /veh LINC00158 (11744669_a_at) / RFU DUSP10 (11751237_a_at) / Fold change /veh DUSP10 (11751237_a_at) / RFU ID3 (11757404_x_at) / Fold change /veh ID3 (11757404_x_at) / RFU PLEKHG5 (11737974_s_at) / Fold change /veh PLEKHG5 (11737974_s_at) / RFU LRRC4B (11730491_at) / Fold change /veh LRRC4B (11730491_at) / RFU GIMAP4 (11747438_a_at) / Fold change /veh GIMAP4 (11747438_a_at) / RFU KRT8 (11758183_x_at) / Fold change /veh KRT8 (11758183_x_at) / RFU CNN1 (11734310_a_at) / Fold change /veh CNN1 (11734310_a_at) / RFU VPS37D (11726825_at) / Fold change /veh VPS37D (11726825_at) / RFU C10orf10 (11716522_x_at) / Fold change /veh C10orf10 (11716522_x_at) / RFU KIR2DL2 /// KIR2DL4 /// KIR2DL5A /// KIR2DL5B /// KIR2DS1 /// KIR2DS2 /// KIR2DS3 /// KIR2DS4 /// KIR3DL3 /// KIR3DL3 /// KIR3DS1 (11738374_at) / Fold change /veh KIR2DL2 /// KIR2DL4 /// KIR2DL5A /// KIR2DL5B /// KIR2DS1 /// KIR2DS2 /// KIR2DS3 /// KIR2DS4 /// KIR3DL3 /// KIR3DL3 /// KIR3DS1 (11738374_at) / RFU C1QL1 (11718748_at) / Fold change /veh C1QL1 (11718748_at) / RFU TMPRSS4 (11747572_a_at) / Fold change /veh TMPRSS4 (11747572_a_at) / RFU HAMP (11756126_x_at) / Fold change /veh HAMP (11756126_x_at) / RFU RNFT2 (11725882_a_at) / Fold change /veh RNFT2 (11725882_a_at) / RFU NR4A2 (11747474_a_at) / Fold change /veh NR4A2 (11747474_a_at) / RFU ABCC12 (11746883_a_at) / Fold change /veh ABCC12 (11746883_a_at) / RFU TMEM136 (11760407_x_at) / Fold change /veh TMEM136 (11760407_x_at) / RFU CLDN22 /// WWC2 (11732394_at) / Fold change /veh CLDN22 /// WWC2 (11732394_at) / RFU HLA-DPB1 (11760878_x_at) / Fold change /veh HLA-DPB1 (11760878_x_at) / RFU SPINT1 (11716480_a_at) / Fold change /veh SPINT1 (11716480_a_at) / RFU GAP43 (11754022_s_at) / Fold change /veh GAP43 (11754022_s_at) / RFU A4GNT (11735810_at) / Fold change /veh A4GNT (11735810_at) / RFU PRB3 (11715151_x_at) / Fold change /veh PRB3 (11715151_x_at) / RFU TUBB4B (11761932_at) / Fold change /veh TUBB4B (11761932_at) / RFU CAPN14 (11732068_a_at) / Fold change /veh CAPN14 (11732068_a_at) / RFU TMCC2 (11721928_a_at) / Fold change /veh TMCC2 (11721928_a_at) / RFU IRGQ (11745062_a_at) / Fold change /veh IRGQ (11745062_a_at) / RFU FAM174B (11720279_a_at) / Fold change /veh FAM174B (11720279_a_at) / RFU TMPRSS4 (11748680_a_at) / Fold change /veh TMPRSS4 (11748680_a_at) / RFU FAM212B (11763350_a_at) / Fold change /veh FAM212B (11763350_a_at) / RFU PLEKHG5 (11743358_a_at) / Fold change /veh PLEKHG5 (11743358_a_at) / RFU ZSCAN30 (11745921_a_at) / Fold change /veh ZSCAN30 (11745921_a_at) / RFU CMKLR1 (11741424_a_at) / Fold change /veh CMKLR1 (11741424_a_at) / RFU LOC101060620 /// MAPK8IP1 (11723275_at) / Fold change /veh LOC101060620 /// MAPK8IP1 (11723275_at) / RFU SPTSSB (11747773_x_at) / Fold change /veh SPTSSB (11747773_x_at) / RFU PRSS12 (11739890_at) / Fold change /veh PRSS12 (11739890_at) / RFU BIN1 (11741810_x_at) / Fold change /veh BIN1 (11741810_x_at) / RFU WNT11 (11732464_a_at) / Fold change /veh WNT11 (11732464_a_at) / RFU C10orf10 (11716521_a_at) / Fold change /veh C10orf10 (11716521_a_at) / RFU C5orf56 (11738089_at) / Fold change /veh C5orf56 (11738089_at) / RFU CYB561 (11721691_x_at) / Fold change /veh CYB561 (11721691_x_at) / RFU ANKRD19P (11752326_a_at) / Fold change /veh ANKRD19P (11752326_a_at) / RFU OR2T12 /// OR2T33 /// OR2T8 (11738714_s_at) / Fold change /veh OR2T12 /// OR2T33 /// OR2T8 (11738714_s_at) / RFU VCAN (11748164_a_at) / Fold change /veh VCAN (11748164_a_at) / RFU JSRP1 (11732532_at) / Fold change /veh JSRP1 (11732532_at) / RFU KRTAP10-11 (11738290_x_at) / Fold change /veh KRTAP10-11 (11738290_x_at) / RFU MYO3A (11730013_a_at) / Fold change /veh MYO3A (11730013_a_at) / RFU EBF3 (11725865_a_at) / Fold change /veh EBF3 (11725865_a_at) / RFU CAMK2N1 (11719241_x_at) / Fold change /veh CAMK2N1 (11719241_x_at) / RFU C5orf56 (11738088_a_at) / Fold change /veh C5orf56 (11738088_a_at) / RFU OLFML3 (11715873_a_at) / Fold change /veh OLFML3 (11715873_a_at) / RFU LOC100653217 /// NTM (11731650_a_at) / Fold change /veh LOC100653217 /// NTM (11731650_a_at) / RFU MAPK11 (11762145_a_at) / Fold change /veh MAPK11 (11762145_a_at) / RFU FIZ1 (11724087_x_at) / Fold change /veh FIZ1 (11724087_x_at) / RFU OASL (11726364_x_at) / Fold change /veh OASL (11726364_x_at) / RFU SOX15 (11748057_x_at) / Fold change /veh SOX15 (11748057_x_at) / RFU CD79A (11719716_a_at) / Fold change /veh CD79A (11719716_a_at) / RFU HIST1H1D (11736915_at) / Fold change /veh HIST1H1D (11736915_at) / RFU CASKIN2 (11723855_a_at) / Fold change /veh CASKIN2 (11723855_a_at) / RFU LOC730098 (11760151_x_at) / Fold change /veh LOC730098 (11760151_x_at) / RFU OR4N2 (11742367_at) / Fold change /veh OR4N2 (11742367_at) / RFU PRRT2 (11749266_a_at) / Fold change /veh PRRT2 (11749266_a_at) / RFU SNX32 (11753110_a_at) / Fold change /veh SNX32 (11753110_a_at) / RFU CDHR5 (11726645_a_at) / Fold change /veh CDHR5 (11726645_a_at) / RFU RCAN1 (11760418_a_at) / Fold change /veh RCAN1 (11760418_a_at) / RFU FAM167A (11723789_a_at) / Fold change /veh FAM167A (11723789_a_at) / RFU FAM26E (11764081_at) / Fold change /veh FAM26E (11764081_at) / RFU ISYNA1 (11749810_s_at) / Fold change /veh ISYNA1 (11749810_s_at) / RFU ACY1 (11761880_at) / Fold change /veh ACY1 (11761880_at) / RFU 11764098_at / Fold change /veh 11764098_at / RFU SAMD14 (11745864_x_at) / Fold change /veh SAMD14 (11745864_x_at) / RFU NPB (11741838_a_at) / Fold change /veh NPB (11741838_a_at) / RFU TMPRSS6 (11731388_a_at) / Fold change /veh TMPRSS6 (11731388_a_at) / RFU KRTAP10-2 (11738614_at) / Fold change /veh KRTAP10-2 (11738614_at) / RFU ARHGAP8 /// PRR5-ARHGAP8 (11727945_x_at) / Fold change /veh ARHGAP8 /// PRR5-ARHGAP8 (11727945_x_at) / RFU KRTAP5-7 /// NADSYN1 (11734609_at) / Fold change /veh KRTAP5-7 /// NADSYN1 (11734609_at) / RFU RASL12 (11751679_a_at) / Fold change /veh RASL12 (11751679_a_at) / RFU CDKN2B (11736163_a_at) / Fold change /veh CDKN2B (11736163_a_at) / RFU PRF1 (11729649_at) / Fold change /veh PRF1 (11729649_at) / RFU, ZNF638 /// ZNF638-IT1 / Fold change vs veh, ZNF638 /// ZNF638-IT1 / RFU, PANK3 / Fold change vs veh, PANK3 / RFU, SH3YL1 / Fold change vs veh, SH3YL1 / RFU, ZEB2 / Fold change vs veh, ZEB2 / RFU, NRIP1 / Fold change vs veh, NRIP1 / RFU, PTTG1IP / Fold change vs veh, PTTG1IP / RFU, CAPN2 / Fold change vs veh, CAPN2 / RFU, MED14 / Fold change vs veh, MED14 / RFU, SNORA58 / Fold change vs veh, SNORA58 / RFU, C1orf63 / Fold change vs veh, C1orf63 / RFU, LRRFIP1 / Fold change vs veh, LRRFIP1 / RFU, NDUFAF7 / Fold change vs veh, NDUFAF7 / RFU, SLC12A2 / Fold change vs veh, SLC12A2 / RFU, IBTK / Fold change vs veh, IBTK / RFU, ESF1 / Fold change vs veh, ESF1 / Fold change vs veh, TMEM50B / RFU, TAOK1 / Fold change vs veh, TAOK1 / RFU, ACBD3 / Fold change vs veh, ACBD3 / RFU, TMA16 / Fold change vs veh, TMA16 / RFU, RWDD3 / Fold change vs veh, RWDD3 / RFU, BCAT1 / Fold change vs veh, BCAT1 / RFU, EDEM3 / Fold change vs veh, EDEM3 / RFU, TMEM33 / Fold change vs veh, TMEM33 / RFU, WDR75 / Fold change vs veh, WDR75 / RFU, AHCTF1 / Fold change vs veh, AHCTF1 / RFU, TFRC / Fold change vs veh, TFRC / RFU, ZDHHC17 / Fold change vs veh, ZDHHC17 / RFU, NOM1 / Fold change vs veh, NOM1 / RFU, ARL8B / Fold change vs veh, ARL8B / RFU, ZBTB11 / Fold change vs veh, ZBTB11 / RFU, TAMM41 / Fold change vs veh, TAMM41 / RFU, KIAA1704 /// LOC100996395 / Fold change vs veh, KIAA1704 /// LOC100996395 / RFU, ING1 / Fold change vs veh, ING1 / RFU, TRMT61B / Fold change vs veh, TRMT61B / RFU, FUBP3 / Fold change vs veh, FUBP3 / RFU, TP53 / Fold change vs veh, TP53 / RFU, TNKS2 / Fold change vs veh, TNKS2 / RFU, ZFP14 / Fold change vs veh, ZFP14 / RFU, ACTR2 / Fold change vs veh, ACTR2 / RFU, PPP3R1 / Fold change vs veh, PPP3R1 / RFU, PIK3R1 / Fold change vs veh, PIK3R1 / RFU, HNRNPA1 / Fold change vs veh, HNRNPA1 / RFU, RNF170 / Fold change vs veh, RNF170 / RFU, ZNF28 / Fold change vs veh, ZNF28 / RFU, RNGTT / Fold change vs veh, RNGTT / RFU, OGT / Fold change vs veh, OGT / RFU, BRD1 / Fold change vs veh, BRD1 / RFU, MARS / Fold change vs veh, MARS / RFU, ZNF655 / Fold change vs veh, ZNF655 / RFU, FAHD1 / Fold change vs veh, FAHD1 / RFU, BDP1 / Fold change vs veh, BDP1 / RFU, LRRCC1 / Fold change vs veh, LRRCC1 / RFU, ARID1A / Fold change vs veh, ARID1A / RFU, ZNF146 / Fold change vs veh, ZNF146 / RFU, ZNF330 / Fold change vs veh, ZNF330 / RFU, GPN3 / Fold change vs veh, GPN3 / RFU, C9orf123 / Fold change vs veh, C9orf123 / RFU, N4BP2L2 / Fold change vs veh, N4BP2L2 / RFU, ARFIP1 / Fold change vs veh, ARFIP1 / RFU, FAM179B / Fold change vs veh, FAM179B / RFU, BCL10 / Fold change vs veh, BCL10 / RFU, UHRF1BP1L / Fold change vs veh, UHRF1BP1L / RFU, BET1 / Fold change vs veh, BET1 / RFU, CNOT2 / Fold change vs veh, CNOT2 / RFU, ZNF268 / Fold change vs veh, ZNF268 / Fold change vs veh, ZNF507 / RFU, DGCR2 / Fold change vs veh, DGCR2 / RFU, WDSUB1 / Fold change vs veh, WDSUB1 / Fold change vs veh, HSP90B1 /// MIR3652 / RFU, ADSS / Fold change vs veh, ADSS / RFU, GK / Fold change vs veh, GK / RFU, ZNF148 / Fold change vs veh, ZNF148 / RFU, TAF9 / Fold change vs veh, TAF9 / RFU, SLC1A5 / Fold change vs veh, SLC1A5 / RFU, SLMO2 / Fold change vs veh, SLMO2 / RFU, ABCC4 / Fold change vs veh, ABCC4 / RFU, LOC101060439 /// RAP1B / Fold change vs veh, LOC101060439 /// RAP1B / RFU, RFX7 / Fold change vs veh, RFX7 / RFU, GTPBP10 / Fold change vs veh, GTPBP10 / RFU, CNEP1R1 / Fold change vs veh, CNEP1R1 / RFU, BIVM-ERCC5 /// ERCC5 / Fold change vs veh, BIVM-ERCC5 /// ERCC5 / RFU, ILF3 / Fold change vs veh, ILF3 / RFU 11762660_at / Fold change /veh 11762660_at / RFU VCAN (11757783_s_at) / Fold change /veh VCAN (11757783_s_at) / RFU DDX43 (11728927_at) / Fold change /veh DDX43 (11728927_at) / RFU KRT8 (11758188_x_at) / Fold change /veh KRT8 (11758188_x_at) / RFU NKD1 (11759106_at) / Fold change /veh NKD1 (11759106_at) / RFU SRD5A1 (11742802_a_at) / Fold change /veh SRD5A1 (11742802_a_at) / RFU TPSAB1 /// TPSB2 (11721975_s_at) / Fold change /veh TPSAB1 /// TPSB2 (11721975_s_at) / RFU GSTM3 (11746129_a_at) / Fold change /veh GSTM3 (11746129_a_at) / RFU IL23R (11737362_x_at) / Fold change /veh IL23R (11737362_x_at) / RFU TMEM51 (11727254_a_at) / Fold change /veh TMEM51 (11727254_a_at) / RFU PIWIL2 (11732686_x_at) / Fold change /veh PIWIL2 (11732686_x_at) / RFU ORM1 (11744905_x_at) / Fold change /veh ORM1 (11744905_x_at) / RFU CCDC152 (11743942_at) / Fold change /veh CCDC152 (11743942_at) / RFU ECM1 (11717891_a_at) / Fold change /veh ECM1 (11717891_a_at) / RFU IL23R (11748794_a_at) / Fold change /veh IL23R (11748794_a_at) / RFU TNFAIP8L3 (11732012_x_at) / Fold change /veh TNFAIP8L3 (11732012_x_at) / RFU MBOAT4 (11741988_at) / Fold change /veh MBOAT4 (11741988_at) / RFU 11764193_at / Fold change /veh 11764193_at / RFU TMEM53 (11763286_at) / Fold change /veh TMEM53 (11763286_at) / RFU MAGEB2 (11727129_at) / Fold change /veh MAGEB2 (11727129_at) / RFU TMEM200A (11744735_a_at) / Fold change /veh TMEM200A (11744735_a_at) / RFU CCDC152 (11751479_a_at) / Fold change /veh CCDC152 (11751479_a_at) / RFU FAM211A (11726209_a_at) / Fold change /veh FAM211A (11726209_a_at) / RFU RGS16 (11746705_a_at) / Fold change /veh RGS16 (11746705_a_at) / RFU VCAN (11755009_s_at) / Fold change /veh VCAN (11755009_s_at) / RFU RHOB (11743442_s_at) / Fold change /veh RHOB (11743442_s_at) / RFU RGS16 (11720943_a_at) / Fold change /veh RGS16 (11720943_a_at) / RFU RGS16 (11720944_at) / Fold change /veh RGS16 (11720944_at) / RFU, VPS4B / Fold change vs veh, VPS4B / RFU, CREB1 / Fold change vs veh, CREB1 / RFU, DNAJC13 / Fold change vs veh, DNAJC13 / RFU, GNAQ / Fold change vs veh, GNAQ / RFU, CDK5R1 / Fold change vs veh, CDK5R1 / RFU, ZRANB3 / Fold change vs veh, ZRANB3 / RFU, CUL4A / Fold change vs veh, CUL4A / RFU, CCNY / Fold change vs veh, CCNY / RFU, UFL1 / Fold change vs veh, UFL1 / RFU, COG3 / Fold change vs veh, COG3 / RFU, DIAPH2 / Fold change vs veh, DIAPH2 / RFU, SKA2 / Fold change vs veh, SKA2 / RFU, AFF3 / Fold change vs veh, AFF3 / RFU, LMF1 / Fold change vs veh, LMF1 / RFU, IPO11 / Fold change vs veh, IPO11 / RFU, DFFB / Fold change vs veh, DFFB / RFU, FOXP1 / Fold change vs veh, FOXP1 / RFU, CARD8 / Fold change vs veh, CARD8 / RFU, STRN3 / Fold change vs veh, STRN3 / RFU, ADK / Fold change vs veh, ADK / RFU, RASSF2 / Fold change vs veh, RASSF2 / RFU, WIPF1 / Fold change vs veh, WIPF1 / RFU, LARP1B / Fold change vs veh, LARP1B / RFU, RASA1 / Fold change vs veh, RASA1 / RFU, RB1 / Fold change vs veh, RB1 / RFU, PPFIA1 / Fold change vs veh, PPFIA1 / RFU, MAT2A / Fold change vs veh, MAT2A / RFU, CCT5 / Fold change vs veh, CCT5 / RFU, WDR92 / Fold change vs veh, WDR92 / RFU, CUX1 / Fold change vs veh, CUX1 / RFU, TTC7A / Fold change vs veh, TTC7A / RFU, TMEM135 / Fold change vs veh, TMEM135 / RFU, DEPTOR / Fold change vs veh, DEPTOR / RFU, CPM / Fold change vs veh, CPM / RFU, DNAJB6 / Fold change vs veh, DNAJB6 / RFU, CACNA2D3 / Fold change vs veh, CACNA2D3 / RFU, DTX4 / Fold change vs veh, DTX4 / RFU, TFCP2 / Fold change vs veh, TFCP2 / RFU, GMCL1 /// GMCL1P1 / Fold change vs veh, GMCL1 /// GMCL1P1 / RFU, AEBP2 / Fold change vs veh, AEBP2 / RFU, SNHG1 /// SNORD22 /// SNORD25 /// SNORD26 /// SNORD27 /// SNORD28 /// SNORD29 /// SNORD31 / Fold change vs veh, SNHG1 /// SNORD22 /// SNORD25 /// SNORD26 /// SNORD27 /// SNORD28 /// SNORD29 /// SNORD31 / Fold change (Aza/veh), C12orf56 (ProbeSet 11735607_a_at) / Fold change (ACY-1035/veh), C12orf56 (ProbeSet 11735607_a_at) / Fold change (Aza/veh), FGFR1OP (ProbeSet 11751329_s_at) / Fold change (ACY-1035/veh), FGFR1OP (ProbeSet 11751329_s_at) / Fold change (Aza/veh), VPS36 (ProbeSet 11739960_a_at) / Fold change (ACY-1035/veh), VPS36 (ProbeSet 11739960_a_at) / RFU SYPL1 (11715823_x_at) / Fold change /veh SYPL1 (11715823_x_at) / RFU IGFBP7 (11715501_s_at) / Fold change /veh IGFBP7 (11715501_s_at) / RFU REEP3 (11722064_at) / Fold change /veh REEP3 (11722064_at) / RFU IGLL1 (11728026_x_at) / Fold change /veh IGLL1 (11728026_x_at): dose or concentration left out as unconfirmed
Settings: ProbeSet 11745789_a_at; LIST D

Nc1ccc(-c2cccs2)cc1NC(=O)c1ccc2c(c1)cc(C1CC1)n2CCN1CCOCC1 [ACY-1035]
RFU, TMEM135: 185.11 RFU
